In ChEMBL document CHEMBL1157703, “Synthesis, pharmacological studies and molecular modeling of some tetracyclic 1,3-diazepinium chlorides” (Bioorg Med Chem, 2010):
Active and inactive are the calls of the source. The calls are words filed in the database; no cut-off is given here.

What was measured:
[1] = target: Sodium-dependent noradrenaline transporter (Homo sapiens) (UniProt P23975); experiment: Inhibition of NET PDSP analysis
[2] = species on record: Mus musculus; experiment: Effect on behavioral activity in Albino mouse assessed as inhibition of diazepam-induced loss of screen grip at 0.2 ml/10 g by hippocratic screen; assay type: functional, organism-based
[3] = species on record: Mus musculus; experiment: Effect on behavioral activity in Albino mouse assessed as inhibition of diazepam-induced decrease in respiratory rate at 0.2 ml/10 g by hippocratic screen; assay type: functional, organism-based
[4] = species on record: Mus musculus; experiment: Effect on behavioral activity in Albino mouse assessed as inhibition of diazepam-induced loss of analgesia at 0.2 ml/10 g by hippocratic screen; assay type: functional, organism-based
[5] = species on record: Mus musculus; experiment: Effect on behavioral activity in Albino mouse assessed as inhibition of diazepam-induced anesthesia at 0.2 ml/10 g by hippocratic screen; assay type: functional, organism-based
[6] = species on record: Mus musculus; experiment: Effect on behavioral activity in Albino mouse assessed as inhibition of diazepam-induced paralysis at 0.2 ml/10 g by hippocratic screen; assay type: functional, organism-based
[7] = species on record: Mus musculus; experiment: Effect on behavioral activity in Albino mouse assessed as inhibition of diazepam-induced tremors at 0.2 ml/10 g by hippocratic screen; assay type: functional, organism-based
[8] = species on record: Mus musculus; experiment: Effect on behavioral activity in Albino mouse assessed as inhibition of diazepam-induced startle reaction at 0.2 ml/10 g by hippocratic screen; assay type: functional, organism-based
[9] = target: T1, GABA-A receptor; alpha-1/beta-2/gamma-2 (Homo sapiens, UniProt P14867+P18507+P47870); experiment: Displacement of [3H]flunitrezepam from GABA-A alpha-1-beta-2-gamma-2 receptor by liquid scintillation counting; assay type: protein-complex assay
T1 sequence (P14867 whole entry): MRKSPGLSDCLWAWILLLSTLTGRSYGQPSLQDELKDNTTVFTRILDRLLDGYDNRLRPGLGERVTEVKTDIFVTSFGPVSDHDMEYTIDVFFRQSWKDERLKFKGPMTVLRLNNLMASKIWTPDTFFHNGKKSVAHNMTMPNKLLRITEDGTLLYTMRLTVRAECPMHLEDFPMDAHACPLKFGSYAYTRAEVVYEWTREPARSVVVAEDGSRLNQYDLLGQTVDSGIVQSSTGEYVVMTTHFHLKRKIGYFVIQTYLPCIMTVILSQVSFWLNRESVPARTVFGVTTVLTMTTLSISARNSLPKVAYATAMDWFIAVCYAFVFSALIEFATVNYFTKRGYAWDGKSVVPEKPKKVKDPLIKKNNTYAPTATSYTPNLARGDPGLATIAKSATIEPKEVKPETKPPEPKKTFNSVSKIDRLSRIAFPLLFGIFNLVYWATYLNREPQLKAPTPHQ
T1 sequence (P47870 whole entry): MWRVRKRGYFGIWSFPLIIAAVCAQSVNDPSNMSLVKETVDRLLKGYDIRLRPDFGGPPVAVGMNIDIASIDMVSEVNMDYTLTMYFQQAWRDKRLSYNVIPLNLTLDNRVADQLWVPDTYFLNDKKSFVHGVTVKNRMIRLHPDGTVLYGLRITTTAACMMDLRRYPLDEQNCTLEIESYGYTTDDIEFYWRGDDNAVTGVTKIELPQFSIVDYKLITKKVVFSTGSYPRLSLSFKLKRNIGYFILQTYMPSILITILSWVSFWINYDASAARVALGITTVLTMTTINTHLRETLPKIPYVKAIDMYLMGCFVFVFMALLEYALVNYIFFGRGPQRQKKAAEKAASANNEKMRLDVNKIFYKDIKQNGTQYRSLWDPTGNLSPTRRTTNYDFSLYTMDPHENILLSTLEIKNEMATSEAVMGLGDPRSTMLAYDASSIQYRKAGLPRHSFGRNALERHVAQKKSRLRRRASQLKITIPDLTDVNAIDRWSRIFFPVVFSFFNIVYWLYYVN
T1 sequence (P18507 whole entry): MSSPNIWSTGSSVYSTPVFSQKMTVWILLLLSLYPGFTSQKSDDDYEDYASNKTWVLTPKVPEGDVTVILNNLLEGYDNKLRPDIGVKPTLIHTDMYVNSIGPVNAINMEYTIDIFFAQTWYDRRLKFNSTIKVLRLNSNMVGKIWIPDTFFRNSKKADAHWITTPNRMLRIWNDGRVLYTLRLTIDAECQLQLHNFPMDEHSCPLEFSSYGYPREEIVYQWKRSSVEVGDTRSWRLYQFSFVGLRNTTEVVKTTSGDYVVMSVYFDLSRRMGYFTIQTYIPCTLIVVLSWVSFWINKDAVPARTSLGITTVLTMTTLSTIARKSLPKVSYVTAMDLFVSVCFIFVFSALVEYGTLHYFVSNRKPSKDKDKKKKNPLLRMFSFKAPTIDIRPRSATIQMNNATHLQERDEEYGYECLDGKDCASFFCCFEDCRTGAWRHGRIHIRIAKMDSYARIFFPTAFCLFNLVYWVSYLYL

[10] = target: T2, GABA A receptor alpha-2/beta-2/gamma-2 (Homo sapiens, UniProt P18507+P47869+P47870); experiment: Displacement of [3H]flunitrezepam from GABA-A alpha-2-beta-2-gamma-2 receptor by liquid scintillation counting; assay type: protein-complex assay
T2 sequence (P47870 whole entry): T1 sequence (P47870 whole entry)
T2 sequence (P18507 whole entry): T1 sequence (P18507 whole entry)
T2 sequence (P47869 whole entry): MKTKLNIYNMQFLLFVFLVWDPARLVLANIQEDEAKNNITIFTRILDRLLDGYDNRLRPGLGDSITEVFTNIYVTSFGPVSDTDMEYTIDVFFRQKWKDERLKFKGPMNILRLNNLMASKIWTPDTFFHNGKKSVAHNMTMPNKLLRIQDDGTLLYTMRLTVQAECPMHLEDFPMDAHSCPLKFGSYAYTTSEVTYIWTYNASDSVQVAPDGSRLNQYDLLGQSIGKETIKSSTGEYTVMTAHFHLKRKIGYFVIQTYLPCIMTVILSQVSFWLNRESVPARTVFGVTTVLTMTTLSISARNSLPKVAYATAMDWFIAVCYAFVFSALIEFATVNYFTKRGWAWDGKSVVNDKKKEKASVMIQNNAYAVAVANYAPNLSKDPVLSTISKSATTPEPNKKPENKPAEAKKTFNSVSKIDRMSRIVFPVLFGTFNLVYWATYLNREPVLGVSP

[11] = target: T3, GABA A receptor alpha-3/beta-2/gamma-2 (Homo sapiens, UniProt P18507+P34903+P47870); experiment: Displacement of [3H]flunitrezepam from GABAA alpha-3-beta-2-gamma-2 receptor by liquid scintillation counting; assay type: protein-complex assay
T3 sequence (P47870 whole entry): T1 sequence (P47870 whole entry)
T3 sequence (P18507 whole entry): T1 sequence (P18507 whole entry)
T3 sequence (P34903 whole entry): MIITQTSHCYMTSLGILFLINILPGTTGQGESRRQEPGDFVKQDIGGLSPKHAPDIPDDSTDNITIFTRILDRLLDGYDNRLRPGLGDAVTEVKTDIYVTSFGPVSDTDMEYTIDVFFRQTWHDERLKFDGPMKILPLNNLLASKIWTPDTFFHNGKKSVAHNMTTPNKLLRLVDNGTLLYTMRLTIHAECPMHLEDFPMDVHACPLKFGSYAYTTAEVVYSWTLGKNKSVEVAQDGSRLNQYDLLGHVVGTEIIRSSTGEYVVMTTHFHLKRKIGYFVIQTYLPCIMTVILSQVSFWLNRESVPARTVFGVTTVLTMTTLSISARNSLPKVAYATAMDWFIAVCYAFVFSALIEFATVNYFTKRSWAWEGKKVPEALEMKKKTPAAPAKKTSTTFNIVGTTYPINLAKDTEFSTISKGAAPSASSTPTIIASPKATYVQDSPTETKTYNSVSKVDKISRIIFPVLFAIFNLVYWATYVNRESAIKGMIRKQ

[12] = target: T4, Gamma-aminobutyric acid receptor subunit alpha-5 (Homo sapiens, UniProt P18507+P31644+P47870); experiment: Displacement of [3H]flunitrezepam from GABAA alpha-5-beta-2-gamma-2 receptor by liquid scintillation counting
T4 sequence (P31644 whole entry): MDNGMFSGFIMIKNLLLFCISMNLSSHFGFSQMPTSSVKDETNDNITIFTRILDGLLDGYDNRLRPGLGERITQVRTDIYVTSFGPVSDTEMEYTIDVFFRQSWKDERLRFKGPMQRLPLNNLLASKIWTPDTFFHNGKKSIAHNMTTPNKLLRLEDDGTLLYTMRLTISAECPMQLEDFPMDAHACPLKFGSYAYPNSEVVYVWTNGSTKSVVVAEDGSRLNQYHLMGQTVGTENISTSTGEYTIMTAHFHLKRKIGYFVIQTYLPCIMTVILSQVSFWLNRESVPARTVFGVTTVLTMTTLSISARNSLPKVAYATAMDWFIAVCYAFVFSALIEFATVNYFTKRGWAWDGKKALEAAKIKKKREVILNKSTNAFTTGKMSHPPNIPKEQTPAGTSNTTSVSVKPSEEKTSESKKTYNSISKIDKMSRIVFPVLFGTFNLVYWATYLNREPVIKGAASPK

[13] = tested on: Mus musculus; experiment: CNS toxicity in Albino mouse assessed as anesthetic response at 0.2 ml/10 g by hippocratic screen; assay type: organism-based; conditions: in vivo
[14] = species on record: Mus musculus; experiment: CNS toxicity in Albino mouse assessed as decrease in motor activity at 0.2 ml/10 g by hippocratic screen; assay type: organism-based; conditions: in vivo
[15] = species on record: Mus musculus; experiment: CNS toxicity in Albino mouse assessed as ataxia at 0.2 ml/10 g by hippocratic screen; assay type: organism-based; conditions: in vivo
[16] = species on record: Mus musculus; experiment: CNS toxicity in Albino mouse assessed as loss of righting reflex at 0.2 ml/10 g by hippocratic screen; assay type: organism-based; conditions: in vivo
[17] = species on record: Mus musculus; experiment: CNS toxicity in Albino mouse assessed as loss of screen grip at 0.2 ml/10 g by hippocratic screen; assay type: organism-based; conditions: in vivo
[18] = species on record: Mus musculus; experiment: CNS toxicity in Albino mouse assessed as pinnal reflex at 0.2 ml/10 g by hippocratic screen; assay type: organism-based; conditions: in vivo
[19] = species on record: Mus musculus; experiment: CNS toxicity in Albino mouse assessed as change in respiratory rate at 0.2 ml/10 g by hippocratic screen; assay type: organism-based; conditions: in vivo
[20] = species on record: Mus musculus; experiment: CNS toxicity in Albino mouse assessed as loss of analgesic activity at 0.2 ml/10 g by hippocratic screen; assay type: organism-based; conditions: in vivo
[21] = species on record: Mus musculus; experiment: CNS toxicity in Albino mouse assessed as paralysis at 0.2 ml/10 g by hippocratic screen; assay type: organism-based; conditions: in vivo
[22] = species on record: Mus musculus; experiment: CNS toxicity in Albino mouse assessed as tremors at 0.2 ml/10 g by hippocratic screen; assay type: organism-based; conditions: in vivo
[23] = species on record: Mus musculus; experiment: CNS toxicity in Albino mouse assessed as startle reaction at 0.2 ml/10 g by hippocratic screen; assay type: organism-based; conditions: in vivo
[24] = species on record: Mus musculus; experiment: Effect on behavioral activity in Albino mouse assessed as inhibition of diazepam-induced decrease in motor activity at 0.2 ml/10 g for 10 to 15 mins by hippocratic screen; assay type: functional, organism-based
[25] = species on record: Mus musculus; experiment: Effect on behavioral activity in Albino mouse assessed as inhibition of diazepam-induced ataxia at 0.2 ml/10 g after 5 mins by hippocratic screen; assay type: functional, organism-based
[26] = species on record: Mus musculus; experiment: Effect on behavioral activity in Albino mouse assessed as inhibition of diazepam-induced loss of righting reflex at 0.2 ml/10 g after 2 hrs by hippocratic screen; assay type: functional, organism-based
[27] = species on record: Mus musculus; experiment: Effect on behavioral activity in Albino mouse assessed as inhibition of diazepam-induced pinnal reflex at 0.2 ml/10 g by hippocratic screen; assay type: functional, organism-based
[28] = target: Sodium-dependent serotonin transporter (Homo sapiens) (UniProt P31645); experiment: Inhibition of SERT PDSP analysis; set-up: scale not given: the % may be the effect or the level left
Sodium-dependent serotonin transporter (Homo sapiens), sequence (P31645 whole entry, looked up): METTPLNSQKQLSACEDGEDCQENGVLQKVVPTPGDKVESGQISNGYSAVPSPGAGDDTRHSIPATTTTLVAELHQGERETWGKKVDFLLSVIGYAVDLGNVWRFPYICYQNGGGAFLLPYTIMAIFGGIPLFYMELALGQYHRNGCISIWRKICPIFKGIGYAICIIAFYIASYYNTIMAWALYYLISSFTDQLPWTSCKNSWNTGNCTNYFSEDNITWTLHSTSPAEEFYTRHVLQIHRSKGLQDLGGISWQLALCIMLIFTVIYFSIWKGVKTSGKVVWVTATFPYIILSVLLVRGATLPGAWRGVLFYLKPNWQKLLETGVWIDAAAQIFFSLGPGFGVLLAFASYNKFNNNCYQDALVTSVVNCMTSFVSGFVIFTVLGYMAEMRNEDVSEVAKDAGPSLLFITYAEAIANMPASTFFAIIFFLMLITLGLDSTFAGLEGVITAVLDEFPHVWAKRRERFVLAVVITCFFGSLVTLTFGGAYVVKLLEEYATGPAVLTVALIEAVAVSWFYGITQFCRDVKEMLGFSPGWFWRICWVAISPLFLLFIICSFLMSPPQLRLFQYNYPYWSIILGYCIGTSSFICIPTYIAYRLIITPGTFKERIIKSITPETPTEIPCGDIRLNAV

Sodium-dependent noradrenaline transporter (Homo sapiens), sequence (P23975 whole entry): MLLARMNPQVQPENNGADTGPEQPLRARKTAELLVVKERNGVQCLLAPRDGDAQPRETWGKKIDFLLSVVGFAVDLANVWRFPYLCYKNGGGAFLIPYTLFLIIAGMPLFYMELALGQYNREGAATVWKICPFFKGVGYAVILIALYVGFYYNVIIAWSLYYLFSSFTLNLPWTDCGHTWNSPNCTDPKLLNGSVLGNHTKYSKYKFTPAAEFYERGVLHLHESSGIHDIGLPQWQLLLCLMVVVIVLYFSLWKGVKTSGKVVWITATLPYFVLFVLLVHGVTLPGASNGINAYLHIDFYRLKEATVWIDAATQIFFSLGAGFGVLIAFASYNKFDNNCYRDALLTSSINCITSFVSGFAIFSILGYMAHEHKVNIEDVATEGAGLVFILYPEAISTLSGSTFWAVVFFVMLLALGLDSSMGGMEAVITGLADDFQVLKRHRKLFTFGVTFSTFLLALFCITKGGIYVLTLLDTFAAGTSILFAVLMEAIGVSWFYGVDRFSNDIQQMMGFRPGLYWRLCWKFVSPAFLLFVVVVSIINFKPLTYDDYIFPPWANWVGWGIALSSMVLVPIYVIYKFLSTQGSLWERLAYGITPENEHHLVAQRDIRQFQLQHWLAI

Which Ki [1] does the source give for NC[C@H](O)c1ccc(O)c(O)c1 here?
The Ki was over 10000 nM.

How did the Activity [2] turn out when COc1ccc2c3c(oc2c1)C(=O)Nc1cccc[n+]1C3.[Cl-] was run?
Its Activity is “inactive”.

What about the Activity [3] of the same compound?
The Activity was “inactive”.

And the Activity [4]?
The Activity was “inactive”.

What about the Activity [5] of the same compound?
Its Activity is “inactive”.

What about the Activity [6] of the same compound?
Its Activity is “inactive”.

What about the Activity [7] of the same compound?
The Activity was “inactive”.

What about the Activity [8] of the same compound?
The Activity was “inactive”.

What about the Ki [9] of the same compound?
The Ki was 746 nM.

And the Ki [10]?
The Ki was 8080 nM.

And the Ki [11]?
The Ki was 1540 nM.

What about the Ki [12] of the same compound?
Its Ki is 2360 nM.

And the Activity [13]?
Its Activity is “Non-toxic”.

What about the Activity [14] of the same compound?
Its Activity is “Non-toxic”.

What about the Activity [15] of the same compound?
Its Activity is “Non-toxic”.

What about the Activity [16] of the same compound?
Its Activity is “Non-toxic”.

What about the Activity [17] of the same compound?
The Activity was “Non-toxic”.

And the Activity [18]?
Its Activity is “Non-toxic”.

And the Activity [19]?
Its Activity is “Non-toxic”.

And the Activity [20]?
The Activity was “Non-toxic”.

And the Activity [21]?
Its Activity is “Non-toxic”.

And the Activity [22]?
Its Activity is “Non-toxic”.

What about the Activity [23] of the same compound?
The Activity was “Non-toxic”.

What about the Activity [24] of the same compound?
The Activity was “Active”.

What about the Activity [25] of the same compound?
The Activity was “inactive”.

And the Activity [26]?
Its Activity is “inactive”.

And the Activity [27]?
The Activity was “Active”.

NCCc1c[nH]c2ccc(O)cc12 was tested. Which Activity [28] did it give?
The Activity was over 10000%.
